Patent publication US8987314B2, “Amide, urea or sulfone amide linked benzothiazole inhibitors of endothelial lipase” (Bristol-Myers Squibb Company, priority 2012, dated 2015)
Read-outs that look alike come from different tables or passages of the source.

Experiments:
Endothelial lipase (EL) = Endothelial lipase (EL) (Homo sapiens (Human), UniProt Q9Y5X9); test: EL assay: endothelial lipase activity with fluorescent substrate A10070 in DMPG vesicles; format: biochemical
How it was run: (§1)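 Compounds were preincubated with enzyme for 30 min at 37° C before FRET-substrate vesicles (A10070 in DMPG, 0.11 mole fraction) were added. Reaction rates were obtained from the 300–900 sec slope of fluorescence at 490/530 nm.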

hepatic lipase (HL) = hepatic lipase (HL) (Homo sapiens (Human), UniProt P11150); test: HL assay: hepatic lipase activity with fluorescent substrate A10070 in DMPG vesicles; format: biochemical
Chain of hepatic lipase (HL) (P11150 23-499, species assumed): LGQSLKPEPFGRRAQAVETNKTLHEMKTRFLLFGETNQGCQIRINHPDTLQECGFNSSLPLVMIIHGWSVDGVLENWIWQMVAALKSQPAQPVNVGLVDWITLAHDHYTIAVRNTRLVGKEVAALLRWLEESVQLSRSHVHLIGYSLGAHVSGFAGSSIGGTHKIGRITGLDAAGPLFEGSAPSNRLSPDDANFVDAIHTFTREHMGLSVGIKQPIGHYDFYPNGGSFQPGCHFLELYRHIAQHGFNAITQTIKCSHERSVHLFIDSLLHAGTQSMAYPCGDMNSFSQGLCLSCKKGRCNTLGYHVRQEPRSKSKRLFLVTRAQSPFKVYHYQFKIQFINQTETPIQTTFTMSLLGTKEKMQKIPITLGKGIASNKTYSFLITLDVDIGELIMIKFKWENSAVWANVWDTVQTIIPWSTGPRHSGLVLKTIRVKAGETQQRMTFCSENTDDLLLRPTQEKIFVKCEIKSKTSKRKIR
How it was run: as §1

Chain of Endothelial lipase (EL) (Q9Y5X9 21-500): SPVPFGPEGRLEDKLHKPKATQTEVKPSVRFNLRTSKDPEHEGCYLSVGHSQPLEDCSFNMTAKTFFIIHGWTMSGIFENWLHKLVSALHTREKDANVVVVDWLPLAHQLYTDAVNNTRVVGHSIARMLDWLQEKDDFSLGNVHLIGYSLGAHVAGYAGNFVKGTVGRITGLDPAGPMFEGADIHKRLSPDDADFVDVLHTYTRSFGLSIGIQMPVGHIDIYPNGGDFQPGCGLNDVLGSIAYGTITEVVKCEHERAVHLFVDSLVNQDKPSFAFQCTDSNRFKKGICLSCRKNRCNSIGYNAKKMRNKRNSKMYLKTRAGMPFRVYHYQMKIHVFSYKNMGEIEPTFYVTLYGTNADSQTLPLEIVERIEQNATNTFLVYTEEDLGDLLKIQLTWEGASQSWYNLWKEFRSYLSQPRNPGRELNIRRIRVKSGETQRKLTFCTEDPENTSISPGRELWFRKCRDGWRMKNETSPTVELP

SMILES | IC50 (Endothelial lipase (EL)) [nM] | IC50 (hepatic lipase (HL)) [nM] | IC50 (Endothelial lipase (EL); EL from conditioned media of HT-1080 cells, 30 min incubation with compound at 37° C., A10070/DMPG vesicles) [nM] | IC50 (hepatic lipase (HL); HL partially purified from conditioned media of COS cells, 30 min incubation with compound at 37° C., A10070/DMPG vesicles) [nM]
COc1nccc(-c2ccc3nc(C(C(=O)NCCS(N)(=O)=O)S(C)(=O)=O)sc3c2)c1F (stereo not shown) [Example B149, 2-(6-(3-fluoro-2-methoxy-4-pyridinyl)-1,3-benzothiazol-2-yl)-2-(methylsulfonyl)-N-(2-sulfamoylethyl)acetamide] | < 10 | 64 | – | –
COCCNC(=O)c1ccc(-c2ccc3nc(C(C(=O)NCCS(N)(=O)=O)S(=O)(=O)Cc4ccc(OC(F)(F)F)cc4)sc3c2)cc1 (stereo not shown) [Example B282, N-(2-methoxyethyl)-4-(2-{[(2-sulfamoylethyl)car-bamoyl][4-(trifluoromethoxy)phen-yl]methanesulfonylmethyl}-1,3-benzothiazol-6-yl)ben-zamide] | 2.6 | 306 | – | –
NS(=O)(=O)CCNC(=O)C(c1nc2c(F)cc(-c3ccccc3)cc2s1)S(=O)(=O)Cc1ccccc1 (stereo not shown) [Example B133, 2-(benzylsulfonyl)-2-(4-fluoro-6-phenyl-1,3-benzothiazol-2-yl)-N-(2-sulfamoylethyl)acetamide] | < 10 | 22 | – | –
CS(=O)(=O)C(C(=O)NCCS(N)(=O)=O)c1nc2cc(-c3ccc(C(=O)N4CCOCC4)cc3)ccc2s1 (stereo not shown) [Example B86, 2-(methylsulfonyl)-2-(5-(4-(4-morpholinylcarbonyl)phen-yl)-1,3-benzothiazol-2-yl)-N-(2-sulfamoylethyl)a-cetamide] | < 10 | 494 | – | –
NS(=O)(=O)CCNC(=O)C(c1nc2ccc(-c3ccc(C(=O)N4CCOCC4)cc3)cc2s1)S(=O)(=O)CCNC(=O)OCc1ccccc1 (stereo not shown) [Example B158, benzyl (2-((1-(6-(4-(4-morpholinylcarbonyl)phen-yl)-1,3-benzothiazol-2-yl)-2-oxo-2-((2-sulfamoyl-ethyl)amino)ethyl)sul-fonyl)ethyl)carbamate] | < 10 | 31 | – | –
NS(=O)(=O)CCNC(=O)C(c1nc2ccc(-c3ccc(C(=O)NCC(F)(F)F)cc3)cc2s1)S(=O)(=O)CCC(F)(F)F (stereo not shown) [Example B45, 4-(2-(2-oxo-2-((2-sulfamoylethyl)amino)-1-((3,3,3-trifluoropropyl)sul-fonyl)ethyl)-1,3-benzothiazol-6-yl)-N-(2,2,2-trifluoroethyl)ben-zamide] | < 10 | 38 | – | –
CS(=O)(=O)C(C(=O)NCCS(N)(=O)=O)c1nc2ccc(-c3cnn(CCN4CCOCC4)c3)cc2s1 (stereo not shown) [Example B34, 2-(methylsulfonyl)-2-(6-(1-(2-(4-morpholinyl)ethyl)-1H-pyrazol-4-yl)-1,3-benzothiazol-2-yl)-N-(2-sulfamoylethyl)acetamide] | < 10 | 313 | – | –
CS(=O)(=O)C(C(=O)NCCS(N)(=O)=O)c1nc2ccc(-c3ccc(C(=O)N4CC[C@H](O)C4)cc3)cc2s1 (stereo partly drawn) [Example B328, 2-(6-{4-[(3S)-3-hydroxypyrrolidine-1-carbonyl]phen-yl}-1,3-benzothiazol-2-yl)-2-methanesulfonyl-N-(2-sulfamoylethyl)a-cetamide] | 4 | 2620 | – | –
CS(=O)(=O)C(C(=O)NCCS(N)(=O)=O)c1nc2cc(-c3cnn(CCN4CCOCC4)c3)ccc2s1 (stereo not shown) [Example B91, 2-(methylsulfonyl)-2-(5-(1-(2-(4-morpholinyl)ethyl)-1H-pyrazol-4-yl)-1,3-benzothiazol-2-yl)-N-(2-sulfamoylethyl)acetamide] | < 10 | 1800 | – | –
COCCn1cc(-c2ccc3sc(C(C(=O)NCCS(N)(=O)=O)S(C)(=O)=O)nc3c2)cn1 (stereo not shown) [Example B90, 2-(5-(1-(2-methoxyethyl)-1H-pyrazol-4-yl)-1,3-benzothiazol-2-yl)-2-(methylsulfonyl)-N-(2-sulfamoylethyl)acetamide] | < 10 | 100 | – | –
Cc1nnc(CNC(=O)C(c2nc3cc(C)c(-c4ccc(C(=O)N5CCOCC5)cc4)cc3s2)S(=O)(=O)Cc2ccccc2)o1 (stereo not shown) [Example B96, 2-(benzylsulfonyl)-2-(5-methyl-6-(4-(4-morpholinylcarbonyl)phen-yl)-1,3-benzothiazol-2-yl)-N-((5-methyl-1,3,4-oxadiazol-2-yl)methyl)a-cetamide] | 27 | 251 | – | –
NS(=O)(=O)CCNC(=O)C(c1nc2ccc(-c3cccc(C(=O)N4CCC(F)(F)CC4)c3)cc2s1)S(=O)(=O)CCC(F)(F)F (stereo not shown) [Example B343, 2-{6-[3-(4,4-difluoro-piperidine-1-carbon-yl)phenyl]-1,3-benzothiazol-2-yl}-N-(2-sulfamoyl-ethyl)-2-(3,3,3-trifluoro-propanesulfonyl)acetamide] | 13.5 | 38.1 | – | –
CCCS(=O)(=O)C(C(=O)NCCS(N)(=O)=O)c1nc2ccc(-c3ccccc3)cc2s1 (stereo not shown) [Example B107, 2-(6-phenyl-1,3-benzothiazol-2-yl)-2-(propylsulfonyl)-N-(2-sulfamoylethyl)acetamide] | < 10 | < 10 | – | –
CC(C)S(=O)(=O)C(C(=O)NCCS(N)(=O)=O)c1nc2ccc(-c3cccc(C(=O)N(C)C)c3)cc2s1 (stereo not shown) [Example B272, N,N-dimethyl-3-{2-[(propane-2-sulfonyl)[(2-sul-famoylethyl)carbamoyl]meth-yl]-1,3-benzothiazol-6-yl}benzamide] | 35.3 | 612 | – | –
CC(C)CS(=O)(=O)C(C(=O)NCCS(N)(=O)=O)c1nc2ccc(-c3ccc(C(=O)N4CCOCC4)cc3)cc2s1 (stereo not shown) [Example B109, 2-(isobutylsulfonyl)-2-(6-(4-(4-morpholinyl-carbonyl)phenyl)-1,3-benzothiazol-2-yl)-N-(2-sulfamoylethyl)acetamide] | < 10 | 191 | – | –
Cc1nnc(CNC(=O)C(c2nc3cc(F)c(-c4ccccc4)cc3s2)S(=O)(=O)CCC(F)(F)F)o1 (stereo not shown) [Example B150, 2-(5-Fluoro-6-phenyl-1,3-benzothiazol-2-yl)-N-((5-methyl-1,3,4-oxadiazol-2-yl)methyl)-2-((3,3,3-trifluoropropyl)sulfonyl)a-cetamide] | < 10 | 84 | – | –
Cn1ccc(-c2ccc3nc(C(C(=O)NCCS(N)(=O)=O)S(=O)(=O)Cc4ccc(C(F)(F)F)cc4)sc3c2)cc1=O (stereo not shown) [Example B364, 2-[6-(1-methyl-2-oxo-1,2-dihydropyridin-4-yl)-1,3-benzothiazol-2-yl]-N-(2-sulfamoylethyl)-2-{[4-(trifluoromethyl)phen-yl]methanesulfonyl}a-cetamide] | 28.3 | 10000 | – | –
CO[C@H]1CCN(C(=O)c2ccc(-c3ccc4nc(C(C(=O)NCCS(N)(=O)=O)S(=O)(=O)CCC(F)(F)F)sc4c3)cc2)C1 (stereo partly drawn) [Example B304, 2-(6-{4-[(3S)-3-methoxy-pyrrolidine-1-carbonyl]phen-yl}-1,3-benzothiazol-2-yl)-N-(2-sulfamoyl-ethyl)-2-(3,3,3-trifluoro-propanesulfonyl)acetamide] | 0.7 | 16.6 | – | –
CS(=O)(=O)C(C(=O)NCCS(N)(=O)=O)c1nc2ccc(-c3cccc(N4CCCC4)c3)cc2s1 (stereo not shown) [Example B62, 2-(methylsulfonyl)-2-(6-(3-(1-pyrrolidinyl)phenyl)-1,3-benzothiazol-2-yl)-N-(2-sulfamoylethyl)a-cetamide] | 1.2 | 1 | – | –
COCc1ccc(-c2ccc3nc(C(C(=O)NCCS(N)(=O)=O)S(=O)(=O)CC4CC4)sc3c2)cc1 (stereo not shown) [Example B286, 2-cyclopropylmethane-sulfonyl-2-{6-[4-(methoxymethyl)phenyl]-1,3-benzothiazol-2-yl}-N-(2-sulfamoylethyl)a-cetamide] | 3.9 | 55.5 | – | –
CN(C)C(=O)c1cccc(-c2ccc3nc(C(C(=O)NCCS(N)(=O)=O)S(=O)(=O)CCC(F)(F)F)sc3c2)c1 (stereo not shown) [Example B340, N,N-dimethyl-3-(2-{[(2-sulfamoylethyl)carba-moyl](3,3,3-trifluoropro-panesulfonyl)methyl}-1,3-benzothiazol-6-yl)benzamide] | 14.6 | 79.5 | – | –
COCCS(=O)(=O)C(C(=O)NCc1cc(C)no1)c1nc2ccc(-c3ccccc3)cc2s1 (stereo not shown) [Example B234, 2-(2-methoxyethane-sulfonyl)-N-[(3-methyl-1,2-oxazol-5-yl)methyl]-2-(6-phenyl-1,3-benzothiazol-2-yl)a-cetamide] | 4.9 | 0.5 | – | –
CC1(O)CN(C(=O)c2ccc(-c3ccc4nc(C(C(=O)NCCS(N)(=O)=O)S(=O)(=O)Cc5ccc(C(F)(F)F)cc5)sc4c3)cc2)C1 (stereo not shown) [Example B322, 2-{6-[4-(3-hydroxy-3-methylazetidine-1-carbonyl)phenyl]-1,3-benzothiazol-2-yl}-N-(2-sulfamoylethyl)-2-{[4-(trifluoromethyl)phen-yl]methanesulfonyl}a-cetamide] | 2.4 | 37.4 | – | –
CC1(O)CN(C(=O)c2ccc(-c3ccc4nc(C(C(=O)NCCS(N)(=O)=O)S(C)(=O)=O)sc4c3)cc2)C1 (stereo not shown) [Example B318, 2-{6-[4-(3-hydroxy-3-methylazetidine-1-carbonyl)phenyl]-1,3-benzothiazol-2-yl}-2-methanesulfonyl-N-(2-sulfamoylethyl)acetamide] | 1.8 | 911 | – | –
CC(C)(C)OC(=O)c1ccc2sc(C(C(=O)NCCS(N)(=O)=O)S(C)(=O)=O)nc2c1 (stereo not shown) [Example B391, tert-Butyl 2-(1-(methylsulfonyl)-2-oxo-2-((2-sulfamoylethyl)amino)ethyl)-1,3-benzothiazole-5-carboxylate] | – | – | 25 | 53.4
CO[C@@H]1CCN(C(=O)c2ccc(-c3ccc4nc(C(C(=O)NCCS(N)(=O)=O)S(=O)(=O)Cc5ccc(OC(F)(F)F)cc5)sc4c3)cc2)C1 (stereo partly drawn) [Example B354, 2-(6-{4-[(3R)-3-methoxy-pyrrolidine-1-carbonyl]phen-yl}-1,3-benzothiazol-2-yl)-N-(2-sulfamoyl-ethyl)-2-{[4-(trifluoro-methoxy)phenyl]methane-sulfonyl}acetamide] | 3.8 | 553 | – | –
